According to patent publication US10350257B2, “Pharmaceutical composition containing complex extract of Crataegi fructus and Citri pericarpium as an active ingredient for treating or preventing obesity or lipid-related metabolic diseases” (NEUMED, priority 2012, dated 2019):
Marks after values point to notes of the source that are not given here.

Assays:
[1] = test system: diet-induced obesity (DIO) white rat models; assay: Body weight gain in high-fat diet obese animal models (8 weeks); format: in vivo, Sprague-Dawley male white rats; conditions: oral twice a day for 8 weeks, extracts 100 mg/kg, HCA 390 mg/kg
Method: (§1) Animal experiments were performed on Sprague-Dawley ([…] BIO Korea) male white rats weighing 80 to 100 g. 3. Selection of Experimental Groups • Normal group (AIN-93G, Normal diet+fed with secondary distilled water); • Control group (60% Kcal high-fat diet+fed with secondary distilled water); • Positive control group (60% Kcal high-fat diet+administered with 390 mg/kg of […] Fructus extract-administered group (high-fat diet+administered with 100 mg/kg of […] Fructus extract of Comparative Example 1); • Citri Pericarpium extract-administered group (high-fat diet+administered with 100 mg/kg of the Citri Pericarpium extract of Comparative Example 2); and • Complex extract-administered group (high-fat diet+administered with 100 mg/kg of the complex extract of Example 1 or 2). The temperature was 22±2° C., the relative humidity was 50±10%, and the dark-light cycle (light on at 07:00 light off at 19:00) was controlled with fluorescent lighting. […] Moreover, all the experimental groups were sacrificed after 8 weeks to collect blood samples, serums were separated from the blood samples, and the blood triglyceride (mg/dL) and the total cholesterol (mg/dL) were analyzed using a biochemical analyzer ([…], USA).

[2] = test system: diet-induced obesity (DIO) white rat models; assay: Blood triglyceride and total cholesterol in serum of high-fat diet obese animal models after 8 weeks; format: in vivo, Sprague-Dawley male white rats; conditions: serum after 8 weeks; high-fat diet rats; extracts 100 mg/kg, HCA 390 mg/kg oral twice a day
Method: as §1

[3] = 1,500 mg HCA daily, 12-week clinical trial; cited from earlier work
[4] = about 3 g daily, after 3 months, clinical trials; cited from earlier work

Row | Compound | Body weight gain ([1]; 60% Kcal high-fat diet rats, mean±SD) | Reduction in rate of body weight gain ([1]; vs high-fat diet control group) | Total cholesterol [2] | Total triglyceride [2] | Weight loss effect compared to the placebo group [3] | Average body weight lost [4] | Body fat reduced [4]
1 | O=C(O)CC(O)(C(=O)O)C(O)C(=O)O (stereo not shown) [HCA, hydroxycitrate] | 333.2 ± 12.2 g | 7.3* % | 59.8 ± 11.2 mg/dL | 134.2 ± 21.3 mg/dL | no weight loss effect |  | 
2 | conjugated linoleic acid |  |  |  |  |  | 2.5 kg | 15 to 20%
